Test system: Zymosan-sensitized rats
Assay: Rodent model of zymosan-induced hyperalgesia: visceromotor response to colorectal distension
Format: in vivo, Adult male Sprague-Dawley rats
Conditions: intracolonic zymosan (1 mL, 25 mg/mL), CRD 80 mm Hg, 20 seconds, four hours after zymosan, baseline = 100% of control
Excerpt: Protocol for Evaluation of (E)-4-(1,3-bis(cyclohexylmethyl)-1,2,3,6-tetrahydro-2,6-dioxo-9H-purin-8-yl)cinnamic acid nonaethylene glycol methyl ether ester in a Rodent Model of Zymosan-Induced Hyperalgesia
Adult male Sprague-Dawley rats (400-425 g) housed 1-2 per cage in the animal care facility at the University of Iowa (approved by the American Association for Accreditation of Laboratory Animal Care). All experimental procedures were approved by the Institutional Animal Care and Use Committee at the University of Iowa.
Rats were deeply anesthetized with pentobarbital sodium (45 mg/kg) administered intraperitoneally. […]
The descending colon and rectum were distended by pressure-controlled inflation of a 7-8-cm-long flexible latex balloon tied around a flexible tube. […] Intracolonic pressure was continuously monitored by the aid of a pressure control device. Response was quantified as the visceromotor response (VMR), a contraction of the abdominal and hindlimb musculature. EMG activity produced by contraction of the external oblique musculature was quantified using Spike2 software (Cambridge Electronic Designs). Each distension trial lasted 60 seconds, and EMG activity was quantitated in 1-second bins for 20 seconds before distension (baseline), during distention, and 20 seconds after distention. The increase in total number of recorded counts during distention is defined as the response. […]

## COCCOCCOCCOCCOCCOCCOCCOCCOCCOC(=O)/C=C/c1ccc(-c2nc3c([nH]2)c(=O)n(CC2CCCCC2)c(=O)n3CC2CCCCC2)cc1 [(E)-4-(1,3-bis(cyclohexylmethyl)-1,2,3,6-tetrahydro-2,6-dioxo-9H-purin-8-yl)cinnamic acid nonaethylene glycol methyl ether ester]
12.5 mg/kg oral gavage at time 0 and 16 hours
  response to colorectal distention (CRD) (as a percent of control): effectively decreased the response to colorectal distention down to baseline levels
25 mg/kg oral gavage at time 0 and 16 hours
  response to colorectal distention (CRD) (as a percent of control): effectively decreased the response to colorectal distention down to baseline levels
